Assay results: patent publication US8575135B2 (Gilead Sciences, Inc., priority 2011, dated 2013)
Where two headings read alike, the source gives them in different places.

Tests used:
[1] = system: stable HCV 2a JFH-1 Rluc replicon cells (L31 present in NS5A); experiment: microbe, parasite or virus in culture; type: cell-based; details: Hepatitis C virus
[2] = system: NS5A chimeric genotype 1b Con1 replicon with genotype 4a ED43 strain NS5A gene; experiment: microbe, parasite or virus in culture; type: cell-based, HCV; details: Hepatitis C virus
[3] = system: stable HCV 1a RLuc replicon cells (genotype 1a H77 replicon); experiment: microbe, parasite or virus in culture; type: cell-based; details: Hepatitis C virus
[4] = system: NS5A chimeric genotype 2a JFH-1 replicon with genotype 2b MD2b-1 strain NS5A gene (M31 present); experiment: microbe, parasite or virus in culture; type: cell-based, HCV; details: Hepatitis C virus
Procedure, shortened: (§1)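 Genotype 3a (S52) and 4a (ED43) NS5A chimeras use 1b Con1 Pi-RLuc replicons, transfected transiently; 2b MD2b-1 NS5A chimera (M31) uses 2a JFH-1 RLuc-Neo replicon, transient or stable.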

[5] = system: NS5A chimeric genotype 2a JFH-1 replicon with genotype 2a J6 strain NS5A gene (M31 present); experiment: microbe, parasite or virus in culture; type: cell-based, HCV; details: Hepatitis C virus
[6] = system: NS5A chimeric genotype 1b Con1 replicon with genotype 3a S52 strain NS5A gene; experiment: microbe, parasite or virus in culture; type: cell-based, HCV; details: Hepatitis C virus
Procedure, shortened: as §1

[7] = system: 1a Pi-Rluc replicon with Q30R in genotype 1a NS5A; experiment: microbe, parasite or virus in culture; type: cell-based, HCV; details: Hepatitis C virus
Procedure, shortened: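 Q30R introduced by site-directed mutagenesis into genotype 1a Pi-RLuc replicon; RNA transiently transfected into Huh-7-derived cured-51 cells.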

[8] = IV and PO single dose pharmacokinetic studies in SD rats; type: in vivo; details: male, Sprague-Dawley, rat, plasma, IV infusion 1 mg/kg vs oral gavage 2 mg/kg, read-out: Rat % F
Method: IV and PO Single Dose Pharmacokinetic Studies in SD Rats: The pharmacokinetics of selected compounds was characterized in male Sprague-Dawley (SD) rats (250-300g). […] The intravenous (IV) dosing vehicle was 5% ethanol, 35% polyethylene glycol 400 (PEG 400) and 60% water pH 2.0. […] Serial blood samples (approximately 0.3 mL each) were collected from jugular vein or other suitable vein at specified time points. […] The blood samples were collected into Vacutainer™ tubes containing EDTA-K3 as the anti-coagulant and were centrifuged at approximately 4° C. to obtain plasma. The plasma samples were stored at −20° C. until analysis by LC/MS/MS. A bioanalytical method utilizing high performance liquid chromatography coupled to tandem mass spectrometry (LC/MS/MS) was developed for analysis of the selected compound in rat plasma. Detection was performed using selected reaction monitoring (SRM); […] Standard curve and quality control samples were prepared in male rat plasma and processed in the same way as the test samples to generate quantitative data. Pharmacokinetic parameters were generated using non-compartmental pharmacokinetic analysis (Phoenix WinNonlin, version 6.3). Values below the lower limit of quantification (LLOQ) were assigned a value of zero if predose and treated as missing thereafter. Area under the curve (AUC) was calculated using the linear trapezoidal rule. The oral bioavailability (% F) was determined by comparison of the area under the curve (AUC) of the compound and/or a metabolite generated in plasma following oral administration to that generated following intravenous administration.

Row | SMILES | EC50 ([1]; read-out: 2a JFH) [nM] | EC50 ([1]; read-out: 2a JFH (nM)) [nM] | EC50 ([2]; read-out: 4a) [nM] | EC50 ([2]; read-out: 4a (s) (nM)) [nM] | EC50 ([2]; read-out: 4a (t) (nM)) [nM] | EC50 ([3]; read-out: 1a) [nM] | EC50 ([3]; read-out: 1a (nM)) [nM] | EC50 ([4]; read-out: 2b) [nM] | EC50 ([4]; read-out: 2b (s) (nM)) [nM] | EC50 ([4]; read-out: 2b (t) (nM)) [nM] | EC50 ([5]; read-out: 2a J6) [nM] | EC50 ([5]; read-out: 2a J6 (s) (nM)) [nM] | EC50 ([5]; read-out: 2a Jb (t) (nM)) [nM] | EC50 ([6]; read-out: 3a) [nM] | EC50 ([6]; read-out: 3a (nM)) [nM] | EC50 ([7]; read-out: 1a Q30R) [nM] | EC50 ([7]; read-out: 1a Q30R (nM)) [nM] | bioavailability [8] [%]
1 | COC[C@H]1C[C@@H](c2nc3ccc4cc5c(cc4c3[nH]2)OCc2cc(-c3cnc([C@@H]4C[C@H](C)CN4C(=O)[C@@H](NC(=O)OC)C(C)C)[nH]3)ccc2-5)N(C(=O)[C@H](NC(=O)OC)c2ccccc2)C1 [Example MN, methyl {(2S)-1-[(2S,4S)-2-(5-{2-[(2S,4S)-1-{(2R)-2-[(methoxycarbonyl)amino]-2-phenylacetyl}-4-(methoxymethyl)pyrrolidin-2-yl]-1,11-dihydroisochromeno[4′,3′:6,7]naphtho[1,2-d]imidazol-9-yl}-1H-imidazol-2-yl)-4-methylpyrrolidin-1-yl]-3-methyl-1-oxobutan-2-yl}carbamate] | < 1 | 0.008 | < 1 | 0.007 | 0.024 | < 1 | 0.014 | < 1 | 0.04 | 0.013 | < 1 | 0.071 | 0.017 | < 1 | 0.034 | < 1 | 0.018 | 1.5
2 | COC[C@H]1C[C@@H](c2nc3ccc4cc5c(cc4c3[nH]2)OCc2cc(-c3cnc([C@@H]4C[C@H](C)CN4C(=O)[C@@H](NC(=O)OC)C(C)C)[nH]3)ccc2-5)N(C(=O)[C@@H](NC(=O)OC)C(C)C)C1 [Example MO, methyl {(2S)-1-[(2S,4S)-2-(5-{2-[(2S,4S)-1-{(2S)-2-[(methoxycarbonyl)amino]-3-methylbutanoyl}-4-methoxymethylpyrrolidin-2-yl]-1,11-dihydroisochromeno[4′,3′:6,7]naphtho[1,2-d]imidazol-9-yl}-1H-imidazol-2-yl)-4-methylpyrrolidin-1-yl]-3-methyl-1-oxobutan-2-yl}carbamate] | < 1 | 0.007 | < 1 | 0.018 | 0.022 | < 1 | 0.013 | < 1 | 0.427 | 0.137 | < 1 | 0.471 | 0.089 | < 1 | 0.051 | < 1 | 0.052 | 7.46
3 | COC[C@H]1C[C@@H](c2ncc(-c3ccc4c(c3)COc3cc5c(ccc6nc([C@@H]7C[C@H](C)CN7C(=O)[C@@H](NC(=O)OC)C(C)C)[nH]c65)cc3-4)[nH]2)N(C(=O)[C@H](NC(=O)OC)c2ccccc2)C1 [Example NM, Methyl {(1R)-2-[(2S,4S)-2-(5-{2-[(2S,4S)-1-{(2S)-2-[(methoxycarbonyl)amino]-3-methylbutanoyl}-4-methylpyrrolidin-2-yl]-1,11-dihydroisochromeno[4′,3′:6,7]naphtho[1,2-d]imidazol-9-yl}-1H-imidazol-2-yl)-4-(methoxymethyl)pyrrolidin-1-yl]-2-oxo-1-phenylethyl}carbamate] | < 1 | 0.006 | – | – | – | < 1 | 0.011 | < 1 | – | 0.013 | < 1 | – | 0.012 | < 1 | 0.024 | < 1 | 0.028 | 6.93
4 | COC[C@H]1C[C@@H](c2ncc(-c3ccc4c(c3)COc3cc5c(cc3-4)CCc3nc([C@@H]4CC[C@H](C)N4C(=O)[C@@H](NC(=O)OC)C(C)C)[nH]c3-5)[nH]2)N(C(=O)[C@H](NC(=O)OC)c2ccccc2)C1 [Example OH, methyl {(1R)-2-[(2S,4S)-2-(5-{2-[(2S,5S)-1-{(2S)-2-[(methoxycarbonyl)amino]-3-methylbutanoyl}-5-methylpyrrolidin-2-yl]-1,4,5,11-tetrahydroisochromeno[4′,3′:6,7]naphtho[1,2-d]imidazol-9-yl}-1H-imidazol-2-yl)-4-(methoxymethyl)pyrrolidin-1-yl]-2-oxo-1-phenylethyl}carbamate] | < 1 | 0.007 | – | – | – | < 1 | 0.016 | < 1 | 0.022 | 0.023 | < 1 | – | 0.054 | < 1 | 0.026 | < 1 | 0.031 | 22.7
5 | COC[C@H]1C[C@@H](c2nc3ccc4cc5c(cc4c3[nH]2)OCc2cc(-c3cnc([C@@H]4CC[C@H](C)N4C(=O)[C@@H](NC(=O)OC)C(C)C)[nH]3)ccc2-5)N(C(=O)[C@@H](NC(=O)OC)[C@@H](C)OC)C1 [Example OM, Methyl {(2S)-1-[(2S,4S)-2-(5-{2-[(2S,5S)-1-{(2S,3R)-3-methoxy-2-[(methoxycarbonyl)amino]butanoyl}-4-(methoxymethyl)pyrrolidin-2-yl]-1,11-dihydroisochromeno[4′,3′:6,7]naphtho[1,2-d]imidazol-9-yl}-1H-imidazol-2-yl)-5-methylpyrrolidin-1-yl]-3-methyl-1-oxobutan-2-yl}carbamate] | < 1 | 0.009 | – | – | – | < 1 | 0.014 | < 1 | 0.054 | 0.053 | < 1 | – | 0.045 | < 1 | 0.035 | < 1 | 0.035 | 12.2
6 | COC[C@H]1C[C@@H](c2nc3c([nH]2)-c2cc4c(cc2CC3)-c2ccc(-c3cnc([C@@H]5CC[C@H](C)N5C(=O)[C@@H](NC(=O)OC)C(C)C)[nH]3)cc2CO4)N(C(=O)[C@H](NC(=O)OC)c2ccccc2)C1 [Example OP, Methyl {(1R)-2-[(2S,4S)-2-(9-{2-[(2S,5S)-1-{(2S)-2-[(methoxycarbonyl)amino]-3-methylbutanoyl}-5-methylpyrrolidin-2-yl]-1H-imidazol-5-yl}-1,4,5,11-tetrahydroisochromeno[4′,3′:6,7]naphtho[1,2-d]imidazol-2-yl)-4-(methoxymethyl)pyrrolidin-1-yl]-2-oxo-1-phenylethyl}carbamate] | < 1 | 0.008 | – | – | – | < 1 | 0.013 | < 1 | 0.007 | 0.011 | < 1 | – | 0.018 | < 1 | 0.027 | < 1 | 0.026 | 15.1
7 | CC[C@H](C)[C@H](NC(=O)OC)C(=O)N1[C@@H](C)CC[C@H]1c1ncc(-c2ccc3c(c2)COc2cc4c(ccc5nc([C@@H]6C[C@H](COC)CN6C(=O)[C@H](NC(=O)OC)c6ccccc6)[nH]c54)cc2-3)[nH]1 [Example OW] | < 1 | 0.006 | – | – | – | < 1 | 0.009 | < 1 | – | 0.008 | < 1 | – | 0.009 | < 1 | 0.013 | < 1 | 0.019 | 13.3
